The values that follow come from patent publication USRE35145E, “Substituted phthalocyanine” (Zeneca Limited, priority 1987, dated 1996).

Series [1] can be described thus: Near infra-red absorption spectrum in solution (WLmax, ECmax, band width). Format: physicochemical. An excerpt:
The region from 750 to 1100 nm is of particular importance for optical character recognition (OCR) and for energy conversion, e.g. from laser radiation to heat. Many OCR systems use solid state semi-conductor lasers, which generally emit at 780-830 nm, as the radiation source and photodiode detectors based on silicon which have peak sensitivity around 900 rim.
WLmax is the wavelength of the absorption maximum; and
ECmax is the extinction coefficient at the absorption maximum.

Series [2] can be described thus: Solubility in water, MEK, ethanol, glycols. Format: physicochemical. The settings on record: 25° C., percentages by weight. The text has this: Various applications of the present compounds, especially for printing inks, require products which are soluble in solvents of differing polarities. The major requirements are for water-soluble products (water and water-alcohol or water-glycol mixtures), alcohol (typically methanol, ethanol and propanol) and glycol (typically ethylene glycol and diethylene glycol) soluble products and ketone (typically MEK) soluble products.

Take “hepta(4-methylphenylthio)-tetra(1-amino-2-thio-phen-1,2-ylene)-CuPc [OTCPC]”: in series [1] (in CH3 Cl), the “WLmax (wavelength of the absorption maximum)” value is recorded as 890 nm. Also, in series [1] (in MEK), the “ECmax (extinction coefficient at the absorption maximum)” value was 46,000. This substance also gave a Solubility in series [2] of 10%.
